Tests used:
Test in all cases: relative viability (nuclei count vs DMSO), 5 days (fraction); higher = more cells survive
CUDC-101 + Dasatinib = compound: C#Cc1cccc(Nc2ncnc3cc(OC)c(OCCCCCCC(=O)NO)cc23)c1 [CUDC-101] + Cc1nc(Nc2ncc(C(=O)Nc3c(C)cccc3Cl)s2)cc(N2CCN(CCO)CC2)n1 [Dasatinib] (partner 0.075 µM)
Method in brief: (§1)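 A single step with final 0.05% Triton X-100, 1% formaldehyde and 1 ug/ml Hoechst fixed the cells and stained nuclei 5 days after treatment. Lung cancer cell lines in 1536-well plates had been treated by pin tool the day after seeding with one drug alone or a fixed anchor-drug dose plus five library-drug doses (not always all listed) in √10 steps, and nuclei were counted on 4× images. Relative viability is the ratio of nuclei in treated wells to nuclei in vehicle wells, taken as the median of duplicate plates.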

CUDC-101 + Vorinostat = compound: C#Cc1cccc(Nc2ncnc3cc(OC)c(OCCCCCCC(=O)NO)cc23)c1 [CUDC-101] + O=C(CCCCCCC(=O)Nc1ccccc1)NO [Vorinostat] (partner 1 µM)
Method in brief: as §1

[1] = compound: C1=CC=C2C(=C1)N=C(S2)C(C#N)C3=NC(=NC=C3)NCCC4=CN=CC=C4 + CS(=O)(=O)CCNCc1ccc(-c2ccc3ncnc(Nc4ccc(OCc5cccc(F)c5)c(Cl)c4)c3c2)o1 [Lapatinib] (partner 2 µM)
Method in brief: as §1

[2] = compound: C1=CC=C2C(=C1)N=C(S2)C(C#N)C3=NC(=NC=C3)NCCC4=CN=CC=C4 + Nc1ncn([C@H]2C[C@H](O)[C@@H](CO)O2)c(=O)n1 [Decitabine] (partner 2 µM)
Method in brief: as §1

Cell Line | relative viability (CUDC-101 + Dasatinib; first compound 0.01 µM) | relative viability (CUDC-101 + Dasatinib; first compound 0.03162 µM) | relative viability (CUDC-101 + Dasatinib; first compound 0.1 µM) | relative viability (CUDC-101 + Dasatinib; first compound 0.3162 µM) | relative viability (CUDC-101 + Dasatinib; first compound 1 µM) | relative viability (CUDC-101 + Vorinostat; first compound 0.01 µM) | relative viability (CUDC-101 + Vorinostat; first compound 0.03162 µM) | relative viability (CUDC-101 + Vorinostat; first compound 0.1 µM) | relative viability (CUDC-101 + Vorinostat; first compound 0.3162 µM) | relative viability (CUDC-101 + Vorinostat; first compound 1 µM) | relative viability ([1]; first compound 0.005 µM) | relative viability ([1]; first compound 0.01581 µM) | relative viability ([1]; first compound 0.05 µM) | relative viability ([1]; first compound 0.1581 µM) | relative viability ([1]; first compound 0.5 µM) | relative viability ([2]; first compound 0.01581 µM) | relative viability ([2]; first compound 0.05 µM) | relative viability ([2]; first compound 0.1581 µM) | relative viability ([2]; first compound 0.5 µM) | relative viability ([2]; first compound 0.005 µM)
NCI-H1915 | 0.301 | 0.292 | 0.293 | 0.292 | 0.24 | 0.527 | 0.511 | 0.481 | 0.358 | 0.374 | 0.681 | 0.975 | 1.01 | 1.14 | 0.835 | 0.259 | 0.239 | 0.264 | 0.27 | –
HCC-366 | 0.631 | 0.632 | 0.6 | 0.715 | 0.526 | 0.393 | 0.312 | 0.29 | 0.313 | 0.254 | 0.941 | 1.15 | 0.921 | 1.18 | 1.07 | 0.385 | 0.363 | 0.344 | 0.321 | 0.328
SK-LU-1 | 0.189 | 0.219 | 0.177 | 0.207 | 0.196 | 0.784 | 0.884 | 0.843 | 0.829 | 0.567 | – | 0.856 | 0.934 | 1.18 | 0.832 | 0.762 | 0.68 | 0.727 | 0.558 | 0.496
ABC-1 | 0.772 | 0.728 | 0.543 | 0.532 | 0.194 | 1.05 | 0.988 | 1.17 | 0.815 | 0.318 | 1.08 | 1.26 | 1.21 | 1.02 | 1.21 | – | 0.906 | 1.15 | 1.13 | 0.915
NCI-H1666 | 0.903 | 0.786 | 0.814 | 0.911 | 0.795 | 1.1 | 1.01 | 0.951 | 1.06 | 1.06 | 0.486 | 0.636 | 0.631 | 0.665 | 0.584 | 0.696 | 0.8 | 0.738 | 0.798 | 0.72
COR-L23 | 0.578 | 0.485 | 0.477 | 0.499 | 0.177 | 0.35 | 0.581 | 0.394 | 0.22 | 0.0997 | 0.629 | 1.15 | 1.01 | 1.29 | 0.71 | 0.45 | 0.415 | 0.472 | 0.424 | 0.439
NCI-H460 | 0.555 | 0.506 | 0.524 | 0.602 | 0.44 | 0.679 | 0.73 | 0.695 | 0.597 | 0.409 | – | 1.12 | 1.06 | 1.85 | 0.273 | 0.612 | 0.529 | 0.592 | 0.464 | –

Reference: the supplement of paper PMC10307832
